Experimental data from US20090247560A1, “Diaryl ketimine derivative” (Banyu Pharmaceutical Co., Ltd., priority 2006, published 2009).

biological target: T1, human MCH-1R (Homo sapiens, UniProt Q99705); experiment: MCH binding inhibition test; conditions: inhibition of specific [125I]MCH binding to membranes of CHO-K1 cells expressing human MCH-1R; 25° C., one hour, pH 7.4
T1 construct: expressed in transfected cells; host or cells: CHO-K1 (American Type Culture Collection), membrane samples
Protocol: A human MCH-1R encoding cDNA sequence [FEBS Letters, Vol. 398, 253 (1996); Biochimica et Biophisica Acta, Vol. 1401, 216 (1998)] was cloned to a plasmid vector pEF/myc/cyto (Invitrogen Corporation). The obtained expression vector was transfected to host cells CHO-K1 (American Type Culture Collection) using Lipofectamine Plus Reagent (Life Technology Inc.) to provide MCH-1R expression cells.
Membrane samples prepared from the MCH-1R expression cells were incubated with each test compound and […] of [^125I]MCH (NEN Co.), in an assay buffer (50 mM Tris buffer comprising 10 mM magnesium chloride, 2 mM ethylenediamine tetraacetate, 0.01% bacitracin and 0.2% bovine serum albumin; pH 7.4) at 25° C. for an hour, followed by filtration through a glass filter CF/C (Wattman Co.). After washing the glass filter with 50 mM Tris buffer (pH 7.4) comprising 10 mM magnesium chloride, 2 mM ethylenediamine tetraacetate and 0.04% Tween-20, the radioactive activity on the glass filter was measured.

T1 sequence (Q99705 whole entry): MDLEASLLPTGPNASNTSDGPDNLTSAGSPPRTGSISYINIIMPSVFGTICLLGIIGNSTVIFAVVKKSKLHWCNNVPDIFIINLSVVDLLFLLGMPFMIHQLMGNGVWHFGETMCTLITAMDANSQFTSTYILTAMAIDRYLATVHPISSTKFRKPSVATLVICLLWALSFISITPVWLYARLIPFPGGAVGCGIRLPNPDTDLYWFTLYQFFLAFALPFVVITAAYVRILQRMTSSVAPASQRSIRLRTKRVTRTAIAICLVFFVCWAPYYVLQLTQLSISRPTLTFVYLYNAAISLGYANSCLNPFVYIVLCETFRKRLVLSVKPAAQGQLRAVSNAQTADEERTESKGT

Structure (SMILES) | IC50 [nM]
CN(C)C(=O)CO/N=C(/c1ccc(CN2CCC3(CC2)OCc2cc(F)ncc23)cc1)c1ccc(F)c(F)c1 [Example 2-6, 2-{[((1Z)-(3,4-difluorophenyl){4-[(6-fluoro-1H,1′H-spiro[furo[3,4-c]pyridine-3,4′-piperidin]-1′-yl)methyl]phenyl}methylene)amino]oxy}-N,N-dimethylacetamide] | 0.27
CC(c1ccc(/C(=N/OCC(C)(C)O)c2ccc(F)c(F)c2)nc1)N1CCC2(CC1)OCc1ccncc12 (single isomer, unassigned) [Example 3-1-13, (E)-(3,4-difluorophenyl){5-[1-(1H,1′H-spiro[furo[3,4-c]pyridine-3,4′-piperidin]-1′-yl)ethyl]-2-pyridinyl}methanone O-(2-hydroxy-2-methylpropyl)oxime] | 4.01
Cn1cc2c(cc1=O)C1(CCN(Cc3ccc(/C(=N/OCF)c4ccc(F)c(F)c4)nc3)CC1)OC2 [Example 3-1-15, 1′-[(6-{(E)-(3,4-difluorophenyl)[(fluoromethoxy)imino]methyl}-3-pyridinyl)methyl]-5-methyl-3,5-dihydro-6H-spiro[furo[3,4-c]pyridine-1,4′-piperidin]-6-one] | 8.37
FCCO/N=C(/c1ccc(CN2CCC3(CC2)OCc2ccncc23)cc1)c1ccc(F)c(F)c1 [Example 2-1-2, (Z)-(3,4-difluorophenyl)[4-(1H,1′H-spiro[furo[3,4-c]pyridine-3,4′-piperidin]-1′-ylmethyl)phenyl]methanone O-(2-fluoroethyl)oxime] | 0.07
CCO/N=C(\c1ccc(F)c(F)c1)c1ccc(CN2CCC3(CC2)OCc2cc[n+]([O-])cc23)cn1 [Example 3-1-11, (E)-(3,4-difluorophenyl){5-[(5-oxido-1H,1′H-spiro[furo[3,4-c]pyridine-3,4′-piperidin]-1′-yl)methyl]-2-pyridinyl}methanone O-ethyloxime] | 4.7
CC(c1ccc(/C(=N/OCCF)c2ccc(F)c(F)c2)nc1)N1CCC2(CC1)OCc1ccncc12 (single isomer, unassigned) [Example 2-1-3, (E)-(3,4-difluorophenyl){5-[1-(1H,1′H-spiro[furo[3,4-c]pyridine-3,4′-piperidin]-1′-yl)ethyl]pyridin-2-yl}methanone O-(2-fluoroethyl)oxime] | 1.55
Cn1cc2c(cc1=O)C1(CCN(Cc3ccc(/C(=N/OCC#N)c4ccc(F)c(F)c4)nc3)CC1)OC2 [Example 2-10-2, {[((1E)-(3,4-difluorophenyl){5-[(5-methyl-6-oxo-5,6-dihydro-1′H,3H-spiro[furo[3,4-c]pyridine-1,4′-piperidin]-1′-yl)methyl]pyridin-2-yl}methylene)amino]oxy}acetonitrile] | 9.03
CCO/N=C(\c1ccc(F)c(F)c1)c1ncc(CN2CCC3(CC2)OCc2ccncc23)cn1 [Example 1-3-2, (E) or (Z)-(3,4-difluorophenyl)[5-(1H,1′H-spiro[furo[3,4-c]pyridine-3,4′-piperidin]-1′-ylmethyl)pyrimidin-2-yl]methanone O-ethyloxime] | 8.9
